Experimental data published in patent US5112852A, “Allenyl amines” (Merrell Dow Pharmaceuticals Inc., priority 1989, dated 1992).

Experiments:
hypertensive rats = assay: Antihypertensive activity in vivo, conscious hypertensive rats, mean blood pressure; conditions: 50 mg/kg (ip)
Description: The ability of compounds of this invention to lower blood pressure can be determined in vivo using hypertensive rats according to standard and well known procedures. The test compound is administered intraperitoneally (ip) to conscious rats and the blood pressure monitored continuously. Decreased mean blood pressure over time was observed when a compound of this invention was tested by the above described procedure, as indicated in Table II.

[1] = test system: dopamine-β-hydroxylase (DBH); assay: DBH inhibitory activity in vitro (time-dependent inactivation; oxygen uptake with tyramine substrate); type: biochemical; conditions: 1 mM, pH 4.5 to 5.5, preferably pH 5.0, 20-40° C., preferably 37° C., spread +/-1.1
Description: The DBH inhibitory properties of the compounds of this invention can readily be determined by standard and well known procedures such as those procedures set forth in U.S. Pat. No. 4,415,591. […] The test compound is added at the desired concentration, and the system is incubated. At different time intervals aliquots are taken and DBH activity is measured using tyramine as the substrate. The reaction is followed by measuring oxygen uptake using a polarographic electrode and an oxygen monitor by the method of S. May, et al., J. Biol. Chem. 256, 2258 (1981).

SMILES: C=C=C(CN)c1cccs1 [β-ethenylidene-2-thiopheneethanamine, β-Ethenylidene-2-thiopheneethanamine]
- Maximum % Change in mean Blood Pressure (hypertensive rats; decrease per text): 15.6%
- Duration (hypertensive rats; duration of blood pressure change): 10 h
- t 1/2 (time required for 50% inhibition) [1]: 1.3 h
